According to US9901525B2, “External use skin composition, containing Lentinula edodes-derived ergosterol” (Amorepacific Corporation, priority 2013, dated 2018):

Legend:
Melan-a cell [1] = experiment: Melanin analysis of melan-a cell (melanin content); type: cell-based, mouse; conditions: melan-a cells (FIG. 3); for effect inhibiting the melanin production: 10 μM, corresponds to 4.44 ppm; for effect of inhibiting melanin production: 0.1, 1, 10 μM, 6 days; for skin whitening effect compared with positive controls (50 ppm arbutin, 50 ppm kojic acid): much less amount than the controls
Description: (§1) Melanin-forming cell (melanocyte) derived from C57BL/6J mouse, melan-a cell was cultured by using RPMI-1640 medium (Lonza, USA) with 10% FBS (Fetal Bovine Serum; bovine fetal serum) and 50 U/ml penicillin, 50 μg/ml streptomycin under the condition of 37° C., 10% CO2 and then used in the following experiment.
The Melan-a cell cultured by the method of the Reference Example 2 was seeded on 48 well plate so as to be 1.5×10^4 of the cell number per well and then, cultured for 24 hours. Then, a new medium containing various concentrations (0.1, 1, 10 μM) of 3β, 5α-dihydroxy-6β-methoxy-(22E, 24R)-ergosta-7,22-diene or 3β, 5α, 9α-trihydroxy-(22E, 24R)-ergosta-7,22-diene-6-one isolated from the Reference Example 1 was treated. At this time, in order to compare it, a medium containing 50 ppm of arbutin or 50 ppm of kojic acid was used as a positive control. The medium was treated for 6 days, and after three days, a new medium was exchanged. After 6 days, the cell was washed with DPBS and then, was added with 2N NaOH (10% DMSO) and dissolved at 60° C. for 1 hour. The cell lysate dissolved was moved into 96 well plates and then its absorbance (OD 475) was measured. The measured value was calculated as melanin content from the standard curve for the synthesized melanin, and the melanin content calculated was standardized by the total amount of the protein of each experimental group, and then it was compared with the control to estimate the efficiency. The results are represented in FIG. 3.
In addition, in order to compare the whitening effect of 3β, 5α-dihydroxy-6β-methoxy-(22E, 24R)-ergosta-7,22-diene and 3β, 5α, 9α-trihydroxy-(22E, 24R)-ergosta-7,22-diene-6-one with that of Lentinula edodes extract, the separate melan-a cell melanin assay experiment was performed with the same method as the above. At this time, 50 ppm of arbutin or 12.5, 25, 50, 100 ppm of ethanol extracts of Lentinula edodes obtained from the Reference Example 1 were used, and used by containing them in the medium for the cell culture. The results were represented in FIG. 4.

Melan-a cell [2] = experiment: Cytotoxic test (MTT assay), survival rate of cells; type: cell-based, mouse; conditions: 50 ppm, melan-a cells (FIG. 2)
Description: as §1
Melan-a cell cultured by the method of the Reference Example 2 was seeded on 96 well plates so as to be 1.0×10^4 of cell number and then, cultured for 24 hours. […] Absorbance (OD 570) was determined by using microplate reader (Product Name: Synergy 2 (BioTek)), and a survival rate of the cell was determined by comparing it with the control. […]
The method similar to the Experimental Example 1 was used, except that 50 ppm arbutin, Lentinula edodes extracts (12.5, 25, 50, 100 ppm) were used as the sample treated. Absorbance (OD 570) was measured by using microplate reader (Product Name: Synergy 2 (BioTek)), and a survival rate of the cell was determined by comparing it with the control. […]

| SMILES | effect inhibiting the melanin production (Melan-a cell [1]) | effect of inhibiting melanin production (Melan-a cell [1]) | skin whitening effect compared with positive controls (50 ppm arbutin, 50 ppm kojic acid) (Melan-a cell [1]) | effect on the cell growth (survival rate, MTT) (Melan-a cell [2]) |
| --- | --- | --- | --- | --- |
| CC(C)[C@@H](C)/C=C/[C@@H](C)[C@H]1CC[C@H]2C3=CC(=O)[C@@]4(O)C[C@@H](O)CC[C@]4(C)[C@@]3(O)CC[C@]12C [3β, 5α, 9α-trihydroxy-(22E, 24R)-ergosta-7,22-diene-6-one] | remarkable effect inhibiting the melanin production | exhibits the effect of inhibiting a melanin production | remarkably excellent skin whitening effect than albumin and kojic acid |  |
| CO[C@@H]1C=C2[C@@H]3CC[C@H]([C@H](C)/C=C/[C@H](C)C(C)C)[C@@]3(C)CC[C@@H]2[C@@]2(C)CC[C@H](O)C[C@]12O [3β, 5α-dihydroxy-6β-methoxy-(22E, 24R)-ergosta-7,22-diene] | remarkable effect inhibiting the melanin production | exhibits the effect of inhibiting a melanin production | remarkably excellent skin whitening effect than albumin and kojic acid |  |
| OC[C@H]1O[C@@H](Oc2ccc(O)cc2)[C@H](O)[C@@H](O)[C@@H]1O [arbutin] |  |  |  | did not affect the cell growth |
